# Patent US9949929B2, “Drug carrier and manufacturing method thereof” (National Taiwan University Hospital, priority 2015, dated 2018)
# Experiments:
# cancer cells = assay: cell viability of cancer cells treated with nanomicelles, drug-encapsulating nanomicelles or free Doxorubicin; assay type: cell-based; set-up: dose or concentration left out as unconfirmed
# From the text: (§1) The drug carriers of example 1 and example 2 are used for preparing nanomicelles and drug-encapsulating nanomicelles so as to undergo the following tests. When preparing the nanomicelles, the dried drug carriers are uniformly dissolved in dimethyl sulfoxide (DMSO) to obtain a drug-carrier-DMSO solution. Next, the dimethyl sulfoxide (DMSO) in the drug-carrier-DMSO solution is removed by lyophilization, and the nanomicelles formed by self-assembly of the drug carriers are left. Last, the nanomicelles are put into a phosphate buffered saline (PBS) and sonicated for 20 min; therefore, the nanomicelles are uniformly dissolved in the phosphate buffered saline (PBS) for the following tests.
# When preparing the drug-encapsulating nanomicelles, the drug molecules selected to be encapsulated in the nanomicelles are Doxorubicin (Doxo). First, the dried drug carriers and Doxorubicin molecules are uniformly dissolved in dimethyl sulfoxide (DMSO) to obtain a drug-carrier-Doxorubicin-DMSO solution. Next, the dimethyl sulfoxide (DMSO) in the drug-carrier-Doxorubicin-DMSO solution is removed by lyophilization, and the drug-encapsulating nanomicelles formed by self-assembly of the drug carriers as well as Doxorubicin crystals which are not encapsulated in the drug-encapsulating nanomicelles are left. […]
# [1] = temperature increase of samples irradiated by near-infrared laser (photothermal); assay type: physicochemical; details: near-infrared laser 1 W/cm^2, 650 nm
# From the text: as §1
# When preparing the drug-encapsulating nanomicelles, the drug molecules selected to be encapsulated in the nanomicelles are Doxorubicin (Doxo). First, the dried drug carriers and Doxorubicin molecules are uniformly dissolved in dimethyl sulfoxide (DMSO) to obtain a drug-carrier-Doxorubicin-DMSO solution. […]
# Please refer to FIG. 5. […] When a temperature increase of samples irradiated by near-infrared light (NIR) is measured, the near-infrared light is a near-infrared laser, and the samples are the phosphate buffered saline (PBS), the Doxorubicin (Doxo), the nanomicelles and the drug-encapsulating nanomicelles which encapsulate the Doxorubicin (Doxo). […]
smiles,measurement,setting,value
"COc1cccc2c1C(=O)c1c(O)c3c(c(O)c1C2=O)C[C@@](O)(C(=O)CO)C[C@@H]3O[C@H]1C[C@H](N)[C@H](O)[C@H](C)O1 [Doxorubicin (Doxo), Doxorubicin]",cell viability of the cancer cell,cancer cells,80%
same,temperature change as irradiation time is increased,[1],no significant change
